Test results as given in ChEMBL document CHEMBL4219170, “Design, synthesis and biological evaluation of anti-pancreatic cancer activity of plinabulin derivatives based on the co-crystal structure” (Bioorg Med Chem, 2018).
Converted amounts (≈) assume the structure as drawn. The source made the active and inactive calls. The calls are words filed in the database; no cut-off is given here.

How the values were obtained:
[1] = Solubility of the compound in water after 24 hrs by HPLC analysis; assay type: physicochemical
Tubulin (Homo sapiens) = Tubulin (Homo sapiens) (UniProt P68371+Q9H4B7+P0DPH7+P68366+Q13509+Q71U36+P04350+Q3ZCM7+P07437+P68363+Q9BQE3+Q6PEY2+Q13885+Q9BVA1+Q9BUF5); assay: Inhibition of tubulin polymerization (unknown origin) at 5 uM after 1 min in presence of GTP by fluorescence-based assay relative to control; assay type: protein-complex assay
BXPC-3 [2] = assay: Antiproliferative activity against human BxPC3 cells after 72 hrs by sulforhodamine B assay; assay type: functional, cell-based; settings: BXPC-3, 72 h
BXPC-3 [3] = assay: Antiproliferative activity against human BxPC3 cells at 12.5 nM after 72 hrs by MTT assay relative to control; assay type: functional
Homo sapiens = species: Homo sapiens; assay: Inhibition of beta-tubulin polymerization in human BxPC3 cells at 5 nM after 24 hrs by DAPI staining-based fluorescence microscopic analysis; assay type: cell-based

## CC(C)(C)c1[nH]cnc1/C=c1\[nH]c(=O)/c(=C/c2cccc(C(=O)c3cncs3)c2)[nH]c1=O
[1]
  solubility: < 0.1 µg/mL
Tubulin (Homo sapiens)
  inhibition: 19.9%
BXPC-3 [2]
  IC50: 17.1 nM

## CC(C)(C)c1[nH]cnc1/C=c1\[nH]c(=O)/c(=C/c2cccc(C(=O)c3ccncc3)c2)[nH]c1=O
[1]
  solubility: < 0.1 µg/mL
Tubulin (Homo sapiens)
  inhibition: 34.1%
BXPC-3 [2]
  IC50: 23.8 nM

## O=C(c1cccc(/C=c2\[nH]c(=O)/c(=C/c3ccccn3)[nH]c2=O)c1)N1CCCCC1
[1]
  solubility: < 0.1 µg/mL
BXPC-3 [2]
  IC50: > 500 nM

## CC(C)(C)c1[nH]cnc1/C=c1\[nH]c(=O)/c(=C/c2cccc(C(=O)c3cccnc3)c2)[nH]c1=O
[1]
  solubility: < 0.1 µg/mL
Tubulin (Homo sapiens)
  inhibition: 28.8%
BXPC-3 [2]
  IC50: 4.05 nM

## CC(C)(C)c1[nH]cnc1/C=c1\[nH]c(=O)/c(=C/c2cccc(C(=O)c3ccco3)c2)[nH]c1=O
[1]
  solubility: < 0.1 µg/mL
BXPC-3 [2]
  IC50: 9.23 nM

## CC(C)(C)c1[nH]cnc1/C=c1\[nH]c(=O)/c(=C/c2cccc(C(=O)N3CCCCC3)c2)[nH]c1=O
[1]
  solubility: < 0.1 µg/mL
BXPC-3 [2]
  IC50: 100 nM

## CC(C)(C)c1[nH]cnc1/C=c1\[nH]c(=O)/c(=C/c2cccc(C(=O)c3ccccn3)c2)[nH]c1=O
[1]
  solubility: < 0.1 µg/mL
Tubulin (Homo sapiens)
  inhibition: 36.6%
BXPC-3 [2]
  IC50: 7.58 nM

## CC(C)(C)c1[nH]cnc1/C=c1\[nH]c(=O)/c(=C/c2cccc(C(=O)c3ccccc3)c2)[nH]c1=O
[1]
  solubility: < 0.1 µg/mL

## CC(C)(C)c1[nH]cnc1/C=c1\[nH]c(=O)/c(=C/c2cccc(C(=O)N3CCCC3)c2)[nH]c1=O
[1]
  solubility: 0.454 µg/mL (≈ 1.05 µM)
BXPC-3 [2]
  IC50: 325 nM

## O=C(c1ccccc1)c1cccc(/C=c2\[nH]c(=O)/c(=C/c3ccccn3)[nH]c2=O)c1
BXPC-3 [3]
  Activity: 85%
[1]
  solubility: < 0.1 µg/mL
BXPC-3 [2]
  IC50: 6.27 nM

## CC(C)(C)c1[nH]cnc1/C=c1\[nH]c(=O)/c(=C/c2ccccc2)[nH]c1=O [PLINABULIN]
Homo sapiens
  inhibition: Active
[1]
  solubility: < 0.1 µg/mL
Tubulin (Homo sapiens)
  inhibition: 18.3%
BXPC-3 [2]
  IC50: 4.28 nM

## O=C(c1cccc(/C=c2\[nH]c(=O)/c(=C/c3ccccn3)[nH]c2=O)c1)N1CCC1
[1]
  solubility: 0.662 µg/mL (≈ 1.77 µM)
BXPC-3 [2]
  IC50: > 500 nM

## CN1CCN(C(=O)c2cccc(/C=c3\[nH]c(=O)/c(=C/c4nc[nH]c4C(C)(C)C)[nH]c3=O)c2)CC1
[1]
  solubility: 85.568 µg/mL (≈ 185 µM)
BXPC-3 [2]
  IC50: > 500 nM

## CC(C)(C)c1[nH]cnc1/C=c1\[nH]c(=O)/c(=C/c2cccc(C(=O)c3ccoc3)c2)[nH]c1=O
[1]
  solubility: < 0.1 µg/mL
BXPC-3 [2]
  IC50: 9.41 nM

## CC(C)(C)c1[nH]cnc1/C=c1\[nH]c(=O)/c(=C/c2cccc(C(=O)N3CCOCC3)c2)[nH]c1=O
[1]
  solubility: 1.79 µg/mL (≈ 3.98 µM)
BXPC-3 [2]
  IC50: 257 nM

## CC(C)(C)c1[nH]cnc1/C=c1\[nH]c(=O)/c(=C/c2cccc(C(=O)c3cc[nH]c3)c2)[nH]c1=O
BXPC-3 [2]
  IC50: > 100 nM

## CN1CCN(C(=O)c2cccc(/C=c3\[nH]c(=O)/c(=C/c4ccccn4)[nH]c3=O)c2)CC1
[1]
  solubility: 16.302 µg/mL (≈ 39 µM)
BXPC-3 [2]
  IC50: > 500 nM

## CC(C)(C)c1[nH]cnc1/C=c1\[nH]c(=O)/c(=C/c2cccc(C(=O)N3CCC3)c2)[nH]c1=O
[1]
  solubility: 4.231 µg/mL (≈ 10.1 µM)
BXPC-3 [2]
  IC50: > 500 nM

## CC(C)(C)c1[nH]cnc1/C=c1\[nH]c(=O)/c(=C/c2cccc(C(=O)c3ccc[nH]3)c2)[nH]c1=O
BXPC-3 [2]
  IC50: > 100 nM

## CC(C)(C)c1[nH]cnc1/C=c1\[nH]c(=O)/c(=C/c2cccc(C(=O)c3ccsc3)c2)[nH]c1=O
[1]
  solubility: < 0.1 µg/mL
Tubulin (Homo sapiens)
  inhibition: 39.3%
BXPC-3 [2]
  IC50: 1.56 nM

## CC(C)(C)c1[nH]cnc1/C=c1\[nH]c(=O)/c(=C/c2cccc(C(=O)c3cccs3)c2)[nH]c1=O
[1]
  solubility: < 0.1 µg/mL
Tubulin (Homo sapiens)
  inhibition: 46.4%
BXPC-3 [2]
  IC50: 1.72 nM
